Laboratory results as given in US20100298300A1, “TRIAZOLOPYRAZINE COMPOUNDS USEFUL FOR THE TREATMENT OF DEGENERATIVE & INFLAMMATORY DISEASES” (priority 2006, published 2010).
pEC50, pIC50: −log10 of the molar value.

Assays:
[1] = system: MMP1 expression by activated primary synovial fibroblasts; test: 'MMP assay': MMP1 expression by complex trigger activated synovial fibroblasts (MMP1 ELISA); type: cell-based; conditions: Homo sapiens, Fibroblast, RASFs, complex trigger, 48 hrs, MMP1 ELISA
MAPKAPK5 = target: T1, MAPKAPK5 (Homo sapiens, UniProt Q8IW41); test: MAPKAP-K5 assay (FlashPlate kinase assay)
T1 sequence (Q8IW41 1-471 isoform Q8IW41-2): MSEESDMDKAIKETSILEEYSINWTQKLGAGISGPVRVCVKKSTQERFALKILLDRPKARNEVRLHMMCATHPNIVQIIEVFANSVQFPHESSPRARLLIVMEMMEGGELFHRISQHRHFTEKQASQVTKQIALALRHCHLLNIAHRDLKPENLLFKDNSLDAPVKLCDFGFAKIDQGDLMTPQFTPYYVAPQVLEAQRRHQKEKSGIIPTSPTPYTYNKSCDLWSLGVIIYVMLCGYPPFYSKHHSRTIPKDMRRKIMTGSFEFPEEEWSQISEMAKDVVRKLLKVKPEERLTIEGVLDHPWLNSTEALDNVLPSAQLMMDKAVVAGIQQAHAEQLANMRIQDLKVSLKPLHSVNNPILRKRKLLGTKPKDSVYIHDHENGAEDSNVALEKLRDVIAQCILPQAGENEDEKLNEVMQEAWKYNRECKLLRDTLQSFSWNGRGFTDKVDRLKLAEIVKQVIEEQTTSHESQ
Description: MAPKAP-K5 reactions are performed in FlashPlate format using 0.1 or 0.2 μCi 33P-ATP; 0.6 μM ATP; 1 mU MAPKAP-K5; 3 μM MAPKAP-K5 peptide substrate, incubated at room temperature for 30 minutes.
The MAPKAP-K5 kinase reaction is performed in a 384 well polypropylene plate (Matrix Technologies) and then transferred to a streptavidin-coated 384 well flashplate (Perkin-Elmer).
To wells containing 2 μL test compound or standard inhibitor, 13 μL Enzyme mix or diluent are added using a Hydra (Robbins Scientific).
Reactions are started by addition of 10 μL of [2,5×] substrate cocktail using a Multidrop (Thermo-Labsystems), to give final concentrations in the assay of:
Plates are incubated at room temperature for 30 minutes.
Reactions are terminated by the addition of 25 μL EDTA (50 mM) to each well using a Micro-fill (Biotek).
Reactions are transferred to a streptavidin-coated flashplate using a Zymark robotic system. Plates are incubated for 60 minutes at room temperature.
All wells are washed 3 times with 100 μl phosphate buffered saline using a Tecan plate washer.
Radioactivity is determined by scintillation counting of the flashplate (empty wells) on a Packard TopCount.
Enzyme Mix: • Enzyme • 50 mM Tris Hcl (pH 7.5) • 0.1 mM EGTA • 2 mM DTT • 1 mg/mL BSA
Reaction Buffer: • 50 mM Tris Hcl (pH 7.5) • 0.1 mM EGTA • 10 mM Magnesium acetate • 2 mM DTT

Row | SMILES | pIC50 (MAPKAPK5) | pEC50 ([1]; Table 4) | pEC50 ([1]; Table 3)
1 | CC(C)N1CCN(c2ccc(Nc3ncc(-c4csc(C(N)=O)c4)n4ncnc34)cn2)CC1 [Compound 55, 4-{8-[6-(4-Isopropylpiperazin-1-yl)pyridin-3-ylamino]-[1,2,4]triazolo[1,5-a]pyrazin-5-yl}thiophene-2-carboxylic acid amide] | 6.30 to 7.00 |  | 6.30 to 7.00
2 | OCc1cc(-c2cnc(Nc3ccc(N4CCOCC4)cc3)c3ncnn23)ccn1 [Compound 82] | < 6.00 |  | < 6.00
3 | COc1cc(Nc2ncc(-c3cn[nH]c3)n3ncnc23)ccc1C(=O)NCc1ccc(C)nc1 [Compound 120, 2-Methoxy-N-(6-methylpyridin-3-yl)methyl-4-[5-(1H-pyrazol-4-yl)-[1,2,4]triazolo[1,5-a]pyrazin-8-ylamino]-benzamide] | < 6.00 | < 6.00 | 
4 | CCN1CCN(C(=O)c2ccc(Nc3ncc(-c4cn[nH]c4)n4ncnc34)cc2)CC1 [Compound 138] | 6.00 to 6.30 | < 6.00 | 
5 | O=C1CNCCN1c1ccc(Nc2ncc(-c3cn[nH]c3)n3ncnc23)cc1 [Compound 100, 1-(4-(5-(1H-Pyrazol-4-yl)-[1,2,4]triazolo[1,5-a]pyrazin-8-ylamino)phenyl)piperazin-2-one] | < 6.00 |  | < 6.00
6 | O=C(NCc1cccnc1)c1ccc(Nc2ncc(-c3cn[nH]c3)n3ncnc23)cc1 [Compound 118, 4-(5-(1H-Pyrazol-4-yl)-[1,2,4]triazolo[1,5-a]pyrazin-8-ylamino)-N-(pyridin-3-ylmethyl)benzamide] | < 6.00 | < 6.00 | 
7 | O=C(NCc1ccccc1)c1cccc(Nc2ncc(-c3cn[nH]c3)n3ncnc23)c1 [Compound 123] | < 6.00 | < 6.00 | 
8 | O=C1NCc2oc(-c3cnc(Nc4ccc(N5CCOCC5)cc4)c4ncnn34)cc21 [Compound 111] | 6.30 to 7.00 |  | < 6.00
9 | CCN(CC)C(=O)c1cccc(Nc2ncc(-c3cn[nH]c3)n3ncnc23)c1 [Compound 125] | < 6.00 | < 6.00 | 
10 | CC(C)N1CCN(c2ccc(Nc3ncc(-c4ccnc(CO)c4)n4ncnc34)cc2)CC1 [Compound 83, (4-{8-[4-(4-Isopropylpiperazin-1-yl)-phenylamino]-[1,2,4]triazolo[1,5-a]pyrazin-5-yl}pyridin-2-yl)methanol] | < 6.00 |  | < 6.00
11 | NC(=O)c1cccc(Nc2ncc(-c3cn[nH]c3)n3ncnc23)c1 [Compound 128] | < 6.00 | < 6.00 | 
12 | CC(C)N1CCN(c2ccc(Nc3ncc(-c4cccc5c4CNC5=O)n4ncnc34)cn2)CC1 [Compound 98] | < 6.00 |  | < 6.00
13 | NC(=O)c1cccc2c(-c3cnc(Nc4ccc(N5CCOCC5)cc4)c4ncnn34)csc12 [Compound 80, 3-[8-(4-Morpholin-4-ylphenylamino)-[1,2,4]triazolo[1,5-a]pyrazin-5-yl]-benzo[b]thiophene-7-carboxylic acid amide] | < 6.00 |  | 6.30 to 7.00
14 | O=C(c1cccc(Nc2ncc(-c3cn[nH]c3)n3ncnc23)c1)N1CCCC1 [Compound 126] | < 6.00 | < 6.00 | 
15 | CCOCCN1CCN(C(=O)c2ccc(Nc3ncc(-c4cn[nH]c4)n4ncnc34)cc2)CC1 [Compound 141] | 6.00 to 6.30 | < 6.00 | 
16 | Cc1sc(C(N)=O)cc1-c1cnc(Nc2ccc(N3CCN(C(C)C)CC3)cc2)c2ncnn12 [Compound 95] | < 6.00 |  | < 6.00
17 | CCNC(=O)c1cccc(Nc2ncc(-c3cn[nH]c3)n3ncnc23)c1 [Compound 129, N-Ethyl 3-[5-(1H-pyrazol-4-yl)-[1,2,4]triazolo[1,5-a]pyrazin-8-ylamino]benzamide] | < 6.00 | < 6.00 | 
18 | O=C(NCc1ccccn1)c1cccc(Nc2ncc(-c3cn[nH]c3)n3ncnc23)c1 [Compound 124, N-Pyridin-2-ylmethyl 3-[5-(1H-pyrazol-4-yl)-[1,2,4]triazolo[1,5-a]pyrazin-8-ylamino]benzamide] | < 6.00 | < 6.00 | 
19 | CC(C)N1CCN(c2ccc(Nc3ncc(-c4cccc5c4CNC5=O)n4ncnc34)cc2)CC1 [Compound 97] | < 6.00 |  | < 6.00
20 | CC(C)N1CCN(C(=O)c2cccc(Nc3ncc(-c4cn[nH]c4)n4ncnc34)c2)CC1 [Compound 127, (4-Isopropylpiperazin-1-yl)-{3-[5-(1H-pyrazol-4-yl)-[1,2,4]triazolo[1,5-a]pyrazin-8-ylamino]phenyl}methanone] | 6.00 to 6.30 | < 6.00 | 

Now from value to molecule, other results behind:

Row | pIC50 (MAPKAPK5) | SMILES | pEC50 ([1]; Table 4) | pEC50 ([1]; Table 3)
21 | < 6.00 | O=C(NCCc1ccc(O)cc1)c1ccc(Nc2ncc(-c3cn[nH]c3)n3ncnc23)cc1 [Compound 151] | < 6.00 | 
22 | 6.30 to 7.00 | O=C(N[C@@H]1CCN(Cc2ccccc2)C1)c1ccc(Nc2ncc(-c3ccc4c(c3)CNC4=O)n3ncnc23)cc1 [Compound 195] | < 6.00 | 
23 | 6.30 to 7.00 | O=C1NCc2cc(-c3cnc(NC4CCC4)c4ncnn34)ccc21 [Compound 182] |  | < 6.00
24 | < 6.00 | COCCN(C)C(=O)c1ccc(Nc2ncc(-c3cn[nH]c3)n3ncnc23)cc1 [Compound 156] | < 6.00 | 
25 | < 6.00 | O=C(Nc1ccc(N2CCOCC2)nc1)c1ccc(Nc2ncc(-c3cn[nH]c3)n3ncnc23)cc1 [Compound 194] | 6.00 to 6.30 | 
26 | < 6.00 | COC[C@@H]1CCCN1C(=O)c1ccc(Nc2ncc(-c3cn[nH]c3)n3ncnc23)cc1 [Compound 146] | < 6.00 | 
27 | 7.00 to 9.00 | CC(C)(C)N1CCN(c2ccc(Nc3ncc(-c4coc(C(N)=O)c4)n4ncnc34)cc2)CC1 [Compound 183] |  | < 6.00
28 | 6.00 to 6.30 | O=C(c1ccc(Nc2ncc(-c3cn[nH]c3)n3ncnc23)cc1)N1CC=CCC1 [Compound 159] | < 6.00 | 
29 | 6.00 to 6.30 | CC(C)(C)NC(=O)N1CCC(Nc2ncc(-c3ccc4c(c3)CNC4=O)n3ncnc23)CC1 [Compound 178] |  | < 6.00
30 | 6.00 to 6.30 | CSCCNC(=O)c1ccc(Nc2ncc(-c3cn[nH]c3)n3ncnc23)cc1 [Compound 160] | < 6.00 | 
31 | < 6.00 | O=C(NCc1cc(-c2ccccc2)on1)c1ccc(Nc2ncc(-c3ccc4c(c3)CNC4=O)n3ncnc23)cc1 [Compound 197] | < 6.00 | 
32 | 6.00 to 6.30 | CCC(C)N1CCN(C(=O)c2ccc(Nc3ncc(-c4cn[nH]c4)n4ncnc34)cc2)CC1 (centres unmarked) [Compound 152] | < 6.00 | 
33 | < 6.00 | CC(C)N1CCN(c2ccc(Nc3ncc(-c4cc5c(cn4)C(=O)NC5)n4ncnc34)cc2)CC1 [Compound 173] |  | < 6.00
34 | 6.00 to 6.30 | O=C(NCC1CCCO1)c1ccc(Nc2ncc(-c3cn[nH]c3)n3ncnc23)cc1 (centres unmarked) [Compound 158] | < 6.00 | 
35 | < 6.00 | CCC(COC)NC(=O)c1ccc(Nc2ncc(-c3cn[nH]c3)n3ncnc23)cc1 (centres unmarked) [Compound 149] | < 6.00 | 
36 | 6.00 to 6.30 | O=C(NCCO)c1ccc(Nc2ncc(-c3cn[nH]c3)n3ncnc23)cc1 [Compound 166] | < 6.00 | 
37 | 6.00 to 6.30 | CC(=O)N(C)C1CCN(C(=O)c2ccc(Nc3ncc(-c4cn[nH]c4)n4ncnc34)cc2)C1 (centres unmarked) [Compound 143] | < 6.00 | 
